Measurements: patent publication US7931791B2, “Method of detecting analyte-biomolecule interactions” (Southern Illinois University Carbondale, priority 2006, dated 2011)

Experiments:
[1] = target: T1, BSA (Bos taurus, UniProt P02769); experiment: progesterone ligand binding assay by capillary IEF with fluorescence anisotropy, reference protein; settings: ~100 nM of each labeled protein, 100 nM fluorescein labeled progesterone, 1% ampholytes, focused at 300V; FIG. 9D
T1 construct: purchased Fisher Scientific (Fairlawn, N.J.)
T1 sequence (P02769 25-607): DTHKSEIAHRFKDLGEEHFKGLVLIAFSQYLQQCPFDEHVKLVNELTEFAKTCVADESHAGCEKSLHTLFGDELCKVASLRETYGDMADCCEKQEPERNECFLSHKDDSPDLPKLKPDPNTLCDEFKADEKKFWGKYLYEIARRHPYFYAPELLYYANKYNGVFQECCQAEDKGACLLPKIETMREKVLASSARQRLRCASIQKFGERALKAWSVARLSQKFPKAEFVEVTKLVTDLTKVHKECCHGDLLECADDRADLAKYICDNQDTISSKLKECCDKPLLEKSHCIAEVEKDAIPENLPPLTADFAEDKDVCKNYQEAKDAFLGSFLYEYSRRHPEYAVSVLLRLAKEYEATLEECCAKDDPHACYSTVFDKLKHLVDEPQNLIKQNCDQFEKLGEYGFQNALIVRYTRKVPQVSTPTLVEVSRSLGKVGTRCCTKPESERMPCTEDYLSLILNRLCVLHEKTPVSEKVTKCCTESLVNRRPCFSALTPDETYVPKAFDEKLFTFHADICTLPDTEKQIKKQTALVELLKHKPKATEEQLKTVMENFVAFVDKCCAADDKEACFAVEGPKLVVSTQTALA
Description: Chemicals. Acetic acid, ammonium acetate, hydroxypropyl cellulose (HPC, avg. MW 100,000), HPLC grade dimethylsulfoxide (DMSO), HPLC grade water, BSA, and phosphate buffered saline (PBS, pH 7.4) were obtained from Fisher Scientific (Fairlawn, N.J.). Ampholytes (Pharmolyte 3-10 for IEF) were obtained from Amersham Biosciences (Piscataway, N.J.).
Sample Preparation. TRITC-labeled proteins were prepared according to manufacturer's protocol. […] TRITC was dissolved in DMSO at 1 mg/mL. The TRITC solution was added to the protein sample, and incubated in the dark for 2 hours.
Focusing Capillaries. 75 μm i.d., 360 μm o.d. fused silica capillaries (Polymicro, Phoenix, Ariz.) were coated with hydroxypropyl cellulose (HPC) by filling the capillaries with a 5% HPC solution and then baking them at 200° C. for 45 minutes. This treatment effectively eliminated the electroosmotic flow in the capillary.
cIEF. […]
Fluorescence anisotropy. Fluorescence emission was viewed using a Leica inverted microscope with a 10× long range objective in an epifluorescence configuration. […]
Since the microscope was operated in epifluorescence mode, it was not possible to measure a true anisotropy value. […] Since both the parallel and perpendicular emission intensities were not measured, the anisotropy value could be calculated, but this configuration did permit the detection of areas with increased anisotropies.

[2] = test system: lysate from MCF-7 breast cancer cells; experiment: DIABLA progesterone-protein interactions in a cell lysate; format: binding; settings: MCF-7 breast cancer cell lysate, protocols as in Example 6
Description: The detection sensitivity of DIABLA was tested by examining progesterone-protein interactions in a lysate from MCF-7 breast cancer cells. The experimental protocols were essentially as described above in Example 6, except that a cell lysate was used rather than pure proteins. Five different protein targets that interact with progesterone were identified. FIG. 11 presents one of the targets.

anisotropy in the region containing the focused BSA band [1]: no or low anisotropy
SMILES: CC(=O)[C@H]1CC[C@H]2[C@@H]3CCC4=CC(=O)CC[C@]4(C)[C@H]3CC[C@]12C [progesterone]
number of protein targets that interact with progesterone identified [2]: Five
